Data: paper PMC5972182, “Comparison of a Rat Primary Cell-Based Blood-Brain Barrier Model With Epithelial and Brain Endothelial Cell Lines: Gene Expression and Drug Transport” (Frontiers in Molecular Neuroscience, 2018)

Tests used:
[1] = Permeability across vinblastine-selected VB-Caco-2 cell layers; conditions: human
[2] = Permeability across primary rat brain endothelial cell-based triple co-culture BBB model (EPA)
[3] = in vitro; conditions: rat
[4] = Permeability across lithium-treated hCMEC/D3 (D3L) cells; assay type: in vitro ADME; conditions: human, D3L (10 mM LiCl), fluorescein 10 μg/ml, mean ± SD
Procedure: (§1) Cultures of human brain endothelial hCMEC/D3 cell line (≤passage number 35) were grown in MCDB 131 medium (Pan Biotech) supplemented with 5% FBS, GlutaMAX (100×, LifeTechnologies, Carlsbad, CA, USA), lipid supplement (100×, Life Technologies, Carlsbad, CA, USA), 10 μg/ml ascorbic acid, 550 nM hydrocortisone, 100 μg/ml heparin, 1 ng/ml basic fibroblast growth factor (bFGF, Roche, USA), 2.5 μg/ml insulin, 2.5 μg/ml transferrin, 2.5 ng/ml sodium selenite and 50 μg/ml gentamicin (Weksler et al., [2005]). For differentiation of this cell line (D3L group), the medium was supplemented with 10 mM lithium chloride (LiCl) at the first change of medium (Paolinelli et al., [2013]). For the three brain endothelial cell lines, we used culture media with very similar or identical composition to those that were originally described for their growth and maintenance.

[5] = Permeability across hCMEC/D3 (D3) brain endothelial cell line; assay type: in vitro ADME; conditions: human, fluorescein 10 μg/ml, mean ± SD
Procedure: as §1

[6] = Permeability across Caco-2 epithelial cell layers; assay type: in vitro ADME; conditions: human, CaCo2, fluorescein 10 μg/ml, mean ± SD
[7] = Permeability across MDCK-MDR1 cell layers; assay type: in vitro ADME, canine; conditions: dog, fluorescein 10 μg/ml, mean ± SD
[8] = Permeability across MDCK cell layers; assay type: in vitro ADME, canine; conditions: dog, fluorescein 10 μg/ml, mean ± SD
[9] = Permeability across GP8 brain endothelial cell line; assay type: in vitro ADME; conditions: rat, fluorescein 10 μg/ml, mean ± SD
Procedure: GP8 rat brain endothelial cell line (provided by Dr. John Greenwood, University College London, UK) was cultured in DMEM/ HAM’s F-12, 15% PDS, 100 μg/ml heparin, 1 ng/ml bFGF and 50 μg/ml gentamicin.

[10] = Permeability across RBE4 brain endothelial cell line; assay type: in vitro ADME; conditions: rat, fluorescein 10 μg/ml, mean ± SD
Procedure: RBE4 rat brain endothelial cell line (provided by Dr. Pierre-Olivier Couraud, Institut Cochin, Paris, France) was grown in DMEM/ HAM’s F-12, supplemented with 10% FBS, 1 ng/ml bFGF and 50 μg/ml gentamicin.

[11] = test system: hCMEC/D3 cells; assay: Transendothelial electrical resistance (TEER) of D3 cells after lithium treatment; assay type: cell-based, human; conditions: 10 mM lithium chloride in medium; unpaired t-test, P < 0.0004
Procedure: as §1
Transendothelial electrical resistance (TEER), reflecting the permeability of TJ for sodium ions, was measured by an EVOM voltohmmeter (World Precision Instruments, Sarasota, FL, USA) combined with STX-2 electrodes. Recorded resistance was expressed to the surface area of the filters (Ω × cm^2, Transwell inserts, […] membrane, 0.4 μm pore size, Corning Costar, USA). TEER of cell-free inserts (110 Ω × cm^2) was subtracted from the measured data.

[12] = in vitro; conditions: human, Caco-2
[13] = test system: VB-Caco-2 cells

CO[C@H]1[C@H](O)[C@@H](CO)OC(O)[C@@H]1O (stereo partly drawn) [Glucopyranose, 3-O-methyl-D-glucopyranose] gave a Papp A→B [1] of 17.2 ×10⁻⁶ cm/s and a Papp A→B ([2]; Wistar) of under 65.7 ×10⁻⁶ cm/s.

CC(C)c1nc(N(C)S(C)(=O)=O)nc(-c2ccc(F)cc2)c1/C=C/[C@@H](O)C[C@@H](O)CC(=O)O [Rosuvastatin, rosuvastatin] gave a Papp A→B [1] of 0.38 ×10⁻⁶ cm/s and a Papp A→B ([2]; Wistar) of 11.3 ×10⁻⁶ cm/s.

In the case of CCCN(CCC)S(=O)(=O)c1ccc(C(=O)O)cc1 [Probenecid, probenecid], the Papp A→B [1] is reported as 33.4 ×10⁻⁶ cm/s and the Papp A→B ([2]; Wistar) is reported as 19 ×10⁻⁶ cm/s.

In the case of Nc1c2c(nc3ccccc13)CCCC2 [tacrine], the Papp at 30 min, 0.5 µM ([3]; Wistar) is reported as 102 ± 27 ×10⁻⁶ cm/s.

Work on O=C1OC2(c3ccc(O)cc3Oc3cc(O)ccc32)c2ccccc21 [Fluorescein, fluorescein] yielded a Papp at 30 min, 10 µg/ml [4] of 19.3 ± 1.22 ×10⁻⁶ cm/s, a Papp at 30 min, 10 µg/ml [1] of 0.3 ± 0.06 ×10⁻⁶ cm/s and a Papp at 30 min, 10 µg/ml [5] of 22.2 ± 3.71 ×10⁻⁶ cm/s. It also gave a Papp at 30 min, 10 µg/ml [6] of 1.5 ± 0.28 ×10⁻⁶ cm/s, a Papp at 30 min, 10 µg/ml [7] of 2.7 ± 0.31 ×10⁻⁶ cm/s and a Papp at 30 min, 10 µg/ml [8] of 2.8 ± 0.23 ×10⁻⁶ cm/s. For the same compound, the Papp at 30 min, 10 µg/ml ([2]; Wistar) was 2.1 ± 0.25 ×10⁻⁶ cm/s, the Papp at 30 min, 10 µg/ml [9] was 39.8 ± 3.51 ×10⁻⁶ cm/s and the Papp at 30 min, 10 µg/ml [10] was 27.4 ± 1.63 ×10⁻⁶ cm/s.

With [Cl-].[Li+] [lithium, lithium chloride] the “Effect on TEER of D3 cells” value [11] was “significantly elevated”.

NCC1(CC(=O)O)CCCCC1 [Gabapentin, gabapentin] showed a Papp A→B ([3]; Wistar) of 2.98 ×10⁻⁶ cm/s, an efflux ratio [3] of 0.92 and a Papp A→B [12] of under 0.88 ×10⁻⁶ cm/s. The efflux ratio [12] was over 0.27 and the “Papp A-B” value [13] was “below the detection limit”.

Compound CC[C@H](C)C(=O)O[C@H]1C[C@H](O)C=C2C=C[C@H](C)[C@H](CC[C@@H](O)C[C@@H](O)CC(=O)O)[C@H]21 [Pravastatin, pravastatin] has a Papp A→B [1] of 0.19 ×10⁻⁶ cm/s and a Papp A→B ([2]; Wistar) of 7.61 ×10⁻⁶ cm/s.

Compound O=C(O)c1ccccc1O [Salicylic acid, salicylic acid] has a Papp A→B [1] of 7.6 ×10⁻⁶ cm/s and a Papp A→B ([2]; Wistar) of 4.78 ×10⁻⁶ cm/s.

With N[C@@H](Cc1ccc(O)c(O)c1)C(=O)O [L-DOPA, 3,4-dihydroxy-L-phenylalanine] the efflux ratio at 10 μM [2] was 0.4 and the Papp A→B ([2]; Wistar) was 73 ± 4 ×10⁻⁶ cm/s.

Compound CCCC(CCC)C(=O)O [Valproic acid, valproic acid] has a Papp A→B [1] of 42.2 ×10⁻⁶ cm/s and a Papp A→B ([2]; Wistar) of 39.4 ×10⁻⁶ cm/s.

Compound NCC(CC(=O)O)c1ccc(Cl)cc1 (centres unmarked) [Baclofen, baclofen] has a Papp A→B [1] of 0.31 ×10⁻⁶ cm/s and a Papp A→B ([2]; Wistar) of 16.3 ×10⁻⁶ cm/s.
